Reference: PubChem BioAssay (NCI)
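A five-concentration, 48-hour dose response in 96-well plates underlies each endpoint, interpolated linearly between surrounding concentrations. TGI marks complete inhibition of growth.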

Experiments:
Test in all cases: NCI-60 cell line screen, 48 h
[1] = system: OVCAR-4 ovarian
[2] = system: 786-0 renal
[3] = system: KM12 colon
[4] = system: SK-MEL-28 melanoma
[5] = system: RXF 393 renal
[6] = system: UACC-62 melanoma
[7] = system: SF-295 CNS
[8] = system: NCI/ADR-RES ovarian
[9] = system: TK-10 renal
[10] = system: MDA-MB-435

SMILES	TGI [1] [µM]	TGI [2] [µM]	TGI [3] [µM]	TGI [4] [µM]	TGI [5] [µM]	TGI [6] [µM]	TGI [7] [µM]	TGI [8] [µM]	TGI [9] [µM]	TGI [10] [µM]
O=C1CC(=O)NC(=NN2C(=O)CSC2C(=O)c2ccco2)N1 (stereo not given)	> 100	> 100	> 100	> 100	> 100	> 100	> 100	> 100	> 100	> 100
COC1=C(C)C(=O)C2=C(C1=O)C1C3CC4=C(C(=O)C(OC)=C(C)C4=O)C(CNC(=O)C(C)O)N3C(C#N)C(C2)N1C (stereo not given)	0.334	1.24	0.827	< 0.0217	0.022	< 0.01	0.753	8.72	0.579	< 0.01
Cc1cc2c(c(S(=O)(=O)c3ccccc3[N+](=O)[O-])c1)NCCC2	> 100	> 100	> 100	> 100	> 100	> 100	> 100	> 100	> 100	> 100
CN1CCc2c(sc3ncn(Nc4ccc(Cl)cc4)c(=N)c23)C1	> 100	> 100	> 100	> 100	> 100	> 100	> 100	> 100	> 100	> 100
S=c1nc(N/N=C/c2cccs2)c2cn[nH]c2[nH]1	> 100	> 100	39.1	> 100	> 100	> 100	41.4	81.7	49.3	51.9
Cc1c(C)c(C)c(-n2c(=O)n(C)c(=O)n2-c2cc(C(C)(C)C)cc(C(C)(C)C)c2O)c(C)c1C	21.4	22.4	> 45.3	28	11.6	23.7	21.2	23.4	24.5	27.2
C=CC(=O)N1C/C(=C\c2ccc([N+](=O)[O-])cc2)C(=O)/C(=C/c2ccc([N+](=O)[O-])cc2)C1	1.33	0.249	0.607	1.74	0.359	0.688	0.603	4.12	2.09	1.36
CC(=O)O[C@H]1C(=O)[C@@]2(C)[C@H]([C@H](OC(=O)c3ccccc3)[C@]3(O)C[C@H](OC(=O)[C@H](O)[C@@H](NC(=O)c4ccccc4)c4cccc(N(C)C)c4)C(C)=C1C3(C)C)[C@]1(OC(C)=O)CO[C@@H]1C[C@@H]2O	> 43.6	13.3	> 24.7	> 75	1.24	> 50.2	1.14	> 62.5	> 60	0.0388
COC1=C(Cl)C(=O)c2c(O)ccc(O)c2C1=O	3.66	0.864	23.5	6.73	2.69	4.12	20.3	2.32	2.4	3.13
CCOC1NC(=O)Oc2cc3ccccc3cc21 (stereo not given)	> 100	> 100	> 100	> 100	> 100	> 100	> 100	> 100	> 100	> 100
O=C(O)c1c2c(cc3c1CC1(Cc4cc5c(cc4C1=O)CCC5)C3)CCC2 (stereo not given)	> 100	> 100	> 100	82.5	> 100	> 100	> 100	> 100	> 100	> 100
CC(C)(C)NC(=O)/C(=C\Sc1ccccc1)c1ccccc1	> 100	> 100	> 100	> 100	> 100	> 100	> 100	> 100	> 100	> 100
COC(=O)C1=C(C(=O)OC)C(N(C)C)C(C(=O)OC)=C(C(=O)OC)S1	> 100	> 100	> 100	> 100	> 100	> 100	> 100	> 100	> 100	> 100
NC(=O)CC(N)C(=O)NC(Cc1ccccc1)C(=O)NC(Cc1ccccc1)NC(=O)C(Cc1c[nH]c2ccccc12)C(=O)O (stereo not given)	> 100	> 100	> 100	> 100	> 100	> 100	> 100	> 100	> 100	> 100
O[C@@H]1CCC[C@@H]2NC[C@@H](c3ccc4c(c3)OCO4)[C@H]12	> 100	> 100	> 100	> 100	> 100	> 100	> 100	> 100	> 100	> 100
c1ccc(Nc2nn3c(CCCCCCCCc4nnc5sc(Nc6ccccc6)nn45)nnc3s2)cc1	> 100	79.5	> 100	> 100	> 100	> 100	71.8	> 100	> 100	84
C#C[C@@]1(O)CCCC2=CC3(CC[C@]21C)SCCS3	> 100	> 100	> 100	> 100	> 100	> 100	> 100	> 100	> 100	> 100
O=c1[nH]c2nccn2c2c1SCCN2	> 100	> 100	> 100	> 100	> 100	> 100	> 100	> 100	> 100	> 100
N/C(=N\Nc1ccc(Cl)cc1)c1cnccn1	> 100	> 100	> 100	> 100	> 100	> 100	> 100	> 100	> 100	> 100
